In assay [1] the test system is LNCaP. Kind of assay: Cell cycle arrest in human LNCAP cells assessed as accumulation at S phase at 200 uM after 96 hrs by propidium iodide staining-based FACS flow cytometric analysis (reference value: 15.6 +/- 1.3 %). The format is functional. For orientation: In flow cytometry, cells or beads pass a laser one at a time.
Assay [2] deals with LNCaP. Kind of assay: Cell cycle arrest in human LNCAP cells assessed as accumulation at G0/G1 phase after 96 hrs by propidium iodide staining-based FACS flow cytometric analysis.
The test system of assay [3] is LNCaP. The assay can be described thus: Cell cycle arrest in human LNCAP cells assessed as accumulation at S phase at 100 uM after 96 hrs by propidium iodide staining-based FACS flow cytometric analysis (reference value: 15.6 +/- 1.3 %). Format: functional.
Assay [4] relates to LNCaP. Kind of assay: Cell cycle arrest in human LNCAP cells assessed as accumulation at G2/M phase at 200 uM after 96 hrs by propidium iodide staining-based FACS flow cytometric analysis (reference value: 10.1 +/- […]). The format is functional.
In assay [5] the test system is LNCaP. The assay can be described thus: Cell cycle arrest in human LNCAP cells assessed as accumulation at sub G1 phase at 200 uM after 96 hrs by propidium iodide staining-based FACS flow cytometric analysis (reference value: 0.3 +/- 0.2 %). The format is functional.
Assay [6] concerns LNCaP. The assay can be described thus: Cell cycle arrest in human LNCAP cells assessed as decrease in accumulation at S phase after 96 hrs by propidium iodide staining-based FACS flow cytometric analysis. The format is functional.

The structures appear in SMILES notation.

For the molecule `CC(=O)N[C@H](CC(C)C)C(=O)N[C@@H](CC(C)C)C(=O)N[C@@H](CC(C)C)C(=O)N[C@@H](CC(C)C)C(=O)N[C@@H](CCCNC(=N)N)C(=O)N[C@H](C(=O)N[C@@H](CCCCN)C(=O)N[C@@H](CCCNC(=N)N)C(N)=O)C(C)C`, the Activity in the assay on LNCaP [1] is 8.4%; in the assay on LNCaP [2], “Dose-dependent effect”; with LNCaP [3], 11.8%; with LNCaP [4], 8.3%; with LNCaP [5], 11.8%; in the assay with LNCaP [6], “Dose-dependent effect”.

(Values after ChEMBL document CHEMBL2176991 (J Med Chem, 2012).)
